According to PubChem BioAssay (NCI):
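Step 1: Grow cells in 96-well plates. Step 2: Expose to compound for 48 hours at 5 concentrations. Step 3: Interpolate endpoints linearly; if unreached, use highest concentration. TGI denotes the concentration required for complete inhibition of growth.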

Legend:
Test in all cases: NCI-60 cell line screen, 48 h
SK-OV-3 ovarian = system: SK-OV-3 ovarian
SR leukemia = system: SR leukemia
U251 CNS = system: U251 CNS
COLO 205 colon = system: COLO 205 colon
UACC-257 melanoma = system: UACC-257 melanoma
NCI-H522 lung = system: NCI-H522 lung
SW-620 colon = system: SW-620 colon
HCT-116 colon = system: HCT-116 colon
DLD-1 colon = system: DLD-1 colon
SK-MEL-2 melanoma = system: SK-MEL-2 melanoma
NCI-H460 lung = system: NCI-H460 lung
HOP-18 NSCLC = system: HOP-18 NSCLC
HCC-2998 colon = system: HCC-2998 colon
IGROV1 ovarian = system: IGROV1 ovarian
ACHN renal = system: ACHN renal
SK-MEL-5 melanoma = system: SK-MEL-5 melanoma
HCT-15 colon = system: HCT-15 colon
HL-60(TB) leukemia = system: HL-60(TB) leukemia
SF-295 CNS = system: SF-295 CNS
A498 renal = system: A498 renal
OVCAR-4 ovarian = system: OVCAR-4 ovarian
A549 NSCLC = system: A549 NSCLC
SN12C renal = system: SN12C renal
LXFL 529 NSCLC = system: LXFL 529 NSCLC
OVCAR-8 ovarian = system: OVCAR-8 ovarian
CAKI-1 renal = system: CAKI-1 renal
LOX IMVI melanoma = system: LOX IMVI melanoma
KM12 colon = system: KM12 colon
SNB-78 CNS = system: SNB-78 CNS
M14 melanoma = system: M14 melanoma
RXF-631 renal = system: RXF-631 renal
RXF 393 renal = system: RXF 393 renal
EKVX NSCLC = system: EKVX NSCLC
TK-10 renal = system: TK-10 renal
SF-268 CNS = system: SF-268 CNS
MALME-3M melanoma = system: MALME-3M melanoma
SK-MEL-28 melanoma = system: SK-MEL-28 melanoma
HOP-92 NSCLC = system: HOP-92 NSCLC
SNB-75 CNS = system: SNB-75 CNS
NCI-H23 lung = system: NCI-H23 lung
SF-539 CNS = system: SF-539 CNS
MOLT-4 leukemia = system: MOLT-4 leukemia
UACC-62 melanoma = system: UACC-62 melanoma
RPMI-8226 leukemia = system: RPMI-8226 leukemia
UO-31 renal = system: UO-31 renal
OVCAR-5 ovarian = system: OVCAR-5 ovarian
786-0 renal = system: 786-0 renal
KM20L2 colon = system: KM20L2 colon
DMS 273 small cell lung = system: DMS 273 small cell lung
OVCAR-3 ovarian = system: OVCAR-3 ovarian
HOP-62 NSCLC = system: HOP-62 NSCLC
M19-MEL melanoma = system: M19-MEL melanoma
HT29 colon = system: HT29 colon
CCRF-CEM leukemia = system: CCRF-CEM leukemia
SNB-19 CNS = system: SNB-19 CNS
XF 498 CNS = system: XF 498 CNS
K-562 leukemia = system: K-562 leukemia
DMS 114 small cell lung = system: DMS 114 small cell lung
NCI-H226 lung = system: NCI-H226 lung

c1ccc2c(c1)C1=NCCN1c1ccccc1-2
TGI (SK-OV-3 ovarian): 29.9 µM
TGI (SR leukemia): 2.41 µM
TGI (U251 CNS): 14 µM
TGI (COLO 205 colon): 2.77 µM
TGI (UACC-257 melanoma): 7.71 µM
TGI (NCI-H522 lung): 3.13 µM
TGI (SW-620 colon): 11.6 µM
TGI (HCT-116 colon): 10.4 µM
TGI (DLD-1 colon): 9.02 µM
TGI (SK-MEL-2 melanoma): 8.05 µM
TGI (NCI-H460 lung): 4 µM
TGI (HOP-18 NSCLC): 9.19 µM
TGI (HCC-2998 colon): 18.8 µM
TGI (IGROV1 ovarian): 17.2 µM
TGI (ACHN renal): 7.36 µM
TGI (SK-MEL-5 melanoma): 6.08 µM
TGI (HCT-15 colon): 12.2 µM
TGI (HL-60(TB) leukemia): 5.17 µM
TGI (SF-295 CNS): 31.4 µM
TGI (A498 renal): 8.82 µM
TGI (OVCAR-4 ovarian): 10.2 µM
TGI (A549 NSCLC): 27.1 µM
TGI (SN12C renal): 9.92 µM
TGI (LXFL 529 NSCLC): 13 µM
TGI (OVCAR-8 ovarian): 11.5 µM
TGI (CAKI-1 renal): 9.05 µM
TGI (LOX IMVI melanoma): 10.4 µM
TGI (KM12 colon): 14.6 µM
TGI (SNB-78 CNS): 18 µM
TGI (M14 melanoma): 13.3 µM
TGI (RXF-631 renal): 9.69 µM
TGI (RXF 393 renal): 6.14 µM
TGI (EKVX NSCLC): 35.5 µM
TGI (TK-10 renal): 12 µM
TGI (SF-268 CNS): 11 µM
TGI (MALME-3M melanoma): 6.77 µM
TGI (SK-MEL-28 melanoma): 15.2 µM
TGI (HOP-92 NSCLC): 21.7 µM
TGI (SNB-75 CNS): 14.4 µM
TGI (NCI-H23 lung): 6.65 µM
TGI (SF-539 CNS): 9.69 µM
TGI (MOLT-4 leukemia): 8.99 µM
TGI (UACC-62 melanoma): 13 µM
TGI (RPMI-8226 leukemia): 6.97 µM
TGI (UO-31 renal): 18.4 µM
TGI (OVCAR-5 ovarian): 15.2 µM
TGI (786-0 renal): 10 µM
TGI (KM20L2 colon): 14.2 µM
TGI (DMS 273 small cell lung): 4.88 µM
TGI (OVCAR-3 ovarian): 6.82 µM
TGI (HOP-62 NSCLC): 13.3 µM
TGI (M19-MEL melanoma): 11 µM
TGI (HT29 colon): 7.85 µM
TGI (CCRF-CEM leukemia): 5.98 µM
TGI (SNB-19 CNS): 16.2 µM

O=C1C2Nc3ccccc3SC2C(=O)N1c1ccccc1C(F)(F)F (stereo not drawn)
TGI (SK-OV-3 ovarian): > 100 µM
TGI (XF 498 CNS): 53.2 µM
TGI (SR leukemia): > 100 µM
TGI (K-562 leukemia): > 100 µM
TGI (U251 CNS): 45.2 µM
TGI (UACC-257 melanoma): > 100 µM
TGI (NCI-H522 lung): 56.3 µM
TGI (SW-620 colon): > 100 µM
TGI (HCT-116 colon): > 100 µM
TGI (DLD-1 colon): > 100 µM
TGI (SK-MEL-2 melanoma): > 100 µM
TGI (DMS 114 small cell lung): > 100 µM
TGI (NCI-H460 lung): > 100 µM
TGI (HOP-18 NSCLC): > 100 µM
TGI (HCC-2998 colon): 35.7 µM
TGI (IGROV1 ovarian): > 100 µM
TGI (ACHN renal): > 100 µM
TGI (SK-MEL-5 melanoma): > 100 µM
TGI (HCT-15 colon): 65.5 µM
TGI (HL-60(TB) leukemia): 28.1 µM
TGI (SF-295 CNS): 46.2 µM
TGI (NCI-H226 lung): > 100 µM
TGI (OVCAR-4 ovarian): > 100 µM
TGI (A549 NSCLC): > 100 µM
TGI (SN12C renal): 78.2 µM
TGI (LXFL 529 NSCLC): > 100 µM
TGI (OVCAR-8 ovarian): > 100 µM
TGI (CAKI-1 renal): > 100 µM
TGI (LOX IMVI melanoma): > 100 µM
TGI (KM12 colon): > 100 µM
TGI (SNB-78 CNS): 53.6 µM
TGI (M14 melanoma): 75.8 µM
TGI (RXF 393 renal): 23.7 µM
TGI (EKVX NSCLC): > 100 µM
TGI (TK-10 renal): > 100 µM
TGI (SF-268 CNS): > 100 µM
TGI (MALME-3M melanoma): > 100 µM
TGI (SK-MEL-28 melanoma): > 100 µM
TGI (HOP-92 NSCLC): > 100 µM
TGI (NCI-H23 lung): 60.3 µM
TGI (SF-539 CNS): 41 µM
TGI (MOLT-4 leukemia): > 100 µM
TGI (UACC-62 melanoma): > 100 µM
TGI (RPMI-8226 leukemia): > 100 µM
TGI (UO-31 renal): > 100 µM
TGI (OVCAR-5 ovarian): > 100 µM
TGI (786-0 renal): 68.5 µM
TGI (OVCAR-3 ovarian): 60.6 µM
TGI (HOP-62 NSCLC): > 100 µM
TGI (M19-MEL melanoma): > 100 µM
TGI (HT29 colon): > 100 µM
TGI (CCRF-CEM leukemia): > 100 µM
TGI (SNB-19 CNS): > 100 µM
